Reference: patent US20230073007A1, “SWITCHING BINDER, PREPARATION METHOD THEREFOR, AND PHARMACEUTICAL COMPOSITION, ASSAY KIT, AND ANTIGEN AND ANTIBODY ASSAY METHOD, EACH USING SAME” (OPTOLANE TECHNOLOGIES INC., priority 2019, published 2023)
pKd: −log10 of the molar value.

Key:
[1] = test system: switching binder of SEQ ID NO. 2 (H2) / switching binder of SEQ ID NO. 3 (L1); test: FRET test of mutual binding between switching binders H2 and L1 (FIG. 5E)
Source text: 2 (H2) and the switching binder of SEQ ID NO. 3 (L1). Accordingly, it can be confirmed that the switching binder of SEQ ID NO. 2 […] can self-bind and interact with the LAR region of the light chain (VL), and the switching binder of SEQ ID NO. 3 (L1) can self-bind and interact with the HAR region of the heavy chain (VH). Through this, the switching binder 100 having an amino acid sequence extracted from the heavy chain (VH) can bind to the antigen-binding portion 15 including the framework region (FR) of the light chain (VL), and the switching binder 100 having an amino acid sequence extracted from the light chain (VL) can bind to the antigen-binding portion 15 including the framework region (FR) of the heavy chain (VH).

[2] = target: anti-HRP antibody / HRP; test: Antigen-binding coefficient of the antibody in solution measured via isolated switching binder (FIGS. 10A to 10D); settings: target antigen HRP, anti-HRP antibody not immobilized; calculated from amount of isolated switching binder; read-out: antigen-binding coefficient (Kd) of the antibody in solution, measured using the switching binder
Source text: The pretreatment step (S100″) may include providing the switching binder 100 to an antibody 10 to obtain a mixed solution containing a first conjugate (b1) of the antibody 10 and the switching binder 100, and the switching binder 100 not bound to the antibody 10 (S110); and removing the switching binder 100 not bound to the antibody 10 from the mixed solution (S120). For example, the mixed solution passes through a desalting column to remove the unbound switching binder passing through the desalting column […], and only the first conjugate (b1) passing through the desalting column later can be obtained. The above-described method is exemplary, and various known techniques for separating the first conjugate and the switching binder 100 may be referred to.
Then, as the step of providing an analyte, in the antigen processing step (S200″), the step of separating the first conjugate (b1) from the framework regions (FR, FR) by binding the target antigen 20 to the antibody 10 may be performed. […]
Then, the assay step (S300″) may further include the steps of separating the second conjugate (b2) of the antibody 10 to which the switching binder 130 separated from the antibody 10 and the target antigen 20 are bound (S310); and quantifying the separated switching binder 130 (S320). […] Thereafter, only the separated switching binder 130 may be selectively obtained and quantified through a labeling reaction. At this time, as the concentration of the target antigen 20 increases, the amount of the switching binder 130 separated from the second conjugate (b2) increases, thereby increasing the fluorescence amount of the solution.
In an embodiment, in the assay step (S300″), a test kit that can measure the amount of the switching binder 130 separated according to the increase in the concentration of the target antigen 20 and measure the binding strength of the target antigen 20 to the antibody 10 can be provided. In order to measure the binding strength, the antigen-binding coefficient (Kd) of the antibody 10 may be measured. […]

[3] = test system: anti-HRP antibody, anti-hCG antibody, anti-CRP antibody, anti-HBsAg antibody; test: One-step immunoassay on solid support, release of switching binder on target antigen binding (FIGS. 8A to 8D); parameters: species or system rabbit, mouse, goat; settings: after treatment with target antigen (HRP, hCG, CRP, HBsAg); 10 or 20 μM switching binder; fluorescence
Procedure: With reference to FIG. 8A, anti-HRP antibody was treated and fixed overnight on a solid support at a concentration of 1 μg/ml, and the switching binder 100 of SEQ ID NOs. 1 to 4 were each treated at a concentration of 10 μM (100 μl/well) for 2 hours. At this time, after measuring the fluorescence of the bottom, the antigen HRP as an analyte for an IgG antibody of rabbit was treated at a concentration of 10 μg/ml for 1 hour. With reference to FIG. 8B, anti-HCG antibody was treated and fixed overnight on a solid support at a concentration of 1 μg/ml, and the switching binder 100 of SEQ ID NOs. 1 to 4 were each treated at a concentration of 20 μM (100 μl/well) for 2 hours. At this time, after measuring the fluorescence of the bottom, the antigen HCG as an analyte for an IgG antibody of a mouse was treated at a concentration of 100 μg/ml for 2 hours.
With reference to FIG. 8C, anti-CRP antibody was treated and fixed overnight on a solid support at a concentration of 1 μg/ml, and the switching binder 100 of SEQ ID NOs. 1 to 4 were each treated at a concentration of 20 μM (100 μl/well) for 2 hours. At this time, after measuring the fluorescence of the bottom (A), the antigen […] as an analyte for an IgG antibody of rabbit was treated at a concentration of 10 μg/ml for 1 hour. […] At this time, after measuring the fluorescence of the bottom (A), the antigen HBsAg as an analyte for an IgG antibody of a goat was treated at a concentration of 10 μg/ml for 1 hour.
Referring to FIGS. 8A to 8D, the switching binder 100 was tested using the switching binder of SEQ ID NOs. […] The labeling reaction may be a fluorescence reaction. […]
Referring to FIGS. 8A to 8D, it can be seen that the remaining amount (B) of the switching binder 120 bound to the framework region (FR) was reduced compared to the amount (A) of the switching binder 110 bound to the antibody 10 in all of the switching binder of SEQ ID NO. […] In addition, it can be seen that the amount (C) of the switching binder 130 separated from the framework region (FR) is measured. […]
This is because the amount (A) of the switching binder 110 bound to the antibody 10 is the intensity of fluorescence observed on the surface of the support 30, but the amount (C) of the switching binder 130 separated from the framework region (FR) is the intensity of fluorescence observed in the solution phase. […] According to an embodiment of the present disclosure, as described above, it is possible to quantify the target antigen 20 by the difference between the amount of the switching binder 110 bound to the antibody 10 measured in the pretreatment step (S100) and the amount of the switching binder 120 in the remaining amount bound to the framework region (FR) in the assay step (S300). […]

[4] = test system: anti-influenza B antibody; test: Bead-based antibody binding one-step immunoassay (FIGS. 9A and 9B); settings: influenza B versus CRP at 10 ng/mL; separated and remaining switching binder quantified
[5] = test system: anti-HRP antibody; test: SPR analysis of switching binder binding to immobilized antibody (FIG. 7B); settings: 10 and 20 μM peptide
Source text: Referring to FIG. 7B, in an embodiment, a result of a surface plasmon resonance (SPR) analysis may be confirmed. Surface Plasmon Resonance (SPR) uses a phenomenon that when a material binds to the surface of a metal thin film such as gold, the refractive index of the metal surface changes. When the light is irradiated, the concentration of the material bound to the metal surface can be measured by examining the resonance angle at which the SPR phenomenon occurs among the reflected light.
Specifically, in order to confirm the SPR signal result, the gold surface was treated overnight with 1 mM mercaptoundecanoic acid (MUA) and surface-modified prior to immobilization of the antibody 10. Carbodiimide/N-Hydroxysuccinimide (EDC/NHS, 0.4 M/0.1 M) was mixed in a 1:1 ratio and treated for 10 minutes to activate functional groups. […] The SPR signal can be measured as an average value by repeating the routine of measuring the SPR signal for 3 minutes while the solution is stopped after flowing 1% Tween-20 washing solution for 1 minute three times.
However, the embodiment is not limited to the embodiment of the present disclosure and may include any method capable of measuring the binding strength of the switching binder 100. […] As a result of peptide treatment at a low concentration of 10 μM, shown in the graph on the left (B1), the SPR signal was calculated as the peptide of SEQ ID NO. […]

[6] = test system: switching binder of SEQ ID NO. 1 (H1) / switching binder of SEQ ID NO. 4 (L2); test: FRET test of mutual binding between switching binders H1 and L2 (FIG. 6E)
Source text: 1 (H1) and the switching binder of SEQ ID NO. 4 […]. Through this, it can be confirmed that the switching binder of SEQ ID NO. 1 (H1) can interact with the LBR region of the light chain (VL), and the switching binder of SEQ ID NO. 4 (L2) can interact with the HBR region of the heavy chain (VH). Through this property, the switching binder 100 binds to the framework region (FR), and thus the same effect as the interaction between the framework regions (FR) can be obtained.

Sequence	FRET mutual binding between H2 and L1 [1]	pKd [2]	remaining amount (B) of switching binder bound to framework region compared to amount (A) bound to antibody [3]	bead-based one-step immunoassay feasibility [4]	binding to the antibody by SPR [5]	FRET mutual binding between H1 and L2 [6]
TYLEWYPQKPGQSPKLLIYK [L1, TYLEWYPQKPGQSPKLLIYK]	mutual binding	6.05	reduced	possible		
VYYCFQGSHVPFTK [L2, V-Y-Y-C-F-Q-G-S-H-V-P-F-T-K]		5.92	reduced		binds the most	mutual binding
SYWIHWVKQRPGQGLEWIGE [H1, SYWIHWVKQRPGQGLEWIGE]			reduced	possible		mutual binding
VYYCAREPTGTGIYFDVWGK [H2, VYYCAREPTGTGIYFDVWGK]	mutual binding	5.54	reduced			
